The subject of one assay is rDNA. As to the kind of experiment: Quantitative PCR (QPCR) assay, rRNA inhibition (rDNA). The settings on record: for Selectivity: not defined in the patent; for IC50: rRNA inhibition from quantitative PCR assay. On the set-up: Selectivity: reference not given here. The format is cell-based. From the text:
In a specific assay embodiment, provided herein is a method for identifying a molecule that modulates ribosomal RNA (rRNA) synthesis, which comprises: contacting cells with a test molecule of Formula (I), (II), (III), (IV), (V), (VI), (VI′), (VII), or (VIII), contacting a ribosomal nucleotide sequence with one or more primers that amplify a portion thereof and a labeled probe that hybridizes to the amplification product, and detecting the amount of the amplification product by hybridization of the labeled probe, whereby a test molecule that reduces or increases the amount of amplification product is identified as a molecule that modulates rRNA synthesis. The labeled probe in some embodiments is added after the primers are added and the rRNA is amplified, and in certain embodiments, the labeled probe and the primers are added at the same time. The portion of ribosomal nucleotide sequence amplified sometimes is at the 5′ end of rDNA.
Real-time quantitative PCR (QPCR) method may be used to detect the changes of the target c-myc and the endogenous reference GAPDH gene copies in the same tube. Generally, cells (15,000 cells/well) are seeded on 96 well flat bottom plates (Corning, N.Y.) and incubated under normal growth conditions for overnight. The next day, the culture medium is exchanged for that containing anticancer drugs at various concentrations and incubated for 4 hrs in a humidified atmosphere of 5% CO2 at 37° C. Total RNA (tRNA) is extracted using the RNeasy 96 Kit (QIAGEN, CA). The concentration of the tRNA is determined by the RiboGreen RNA Quantitation Reagent (Molecular Probes, OR).
A reverse-transcription (RT) reaction may be conducted using 50 ng of tRNA from each well in a 25 μl reaction containing 1× TaqMan RT buffer, 2.5 uM random hexamers, 5.5 mM MgCl2, 0.5 mM each deoxynucleoside triphosphate (dNTP), 30 U MultiScribe Reverse Transcriptase, and 10 U RNase inhibitor. RT reactions are incubated for 10 min at 25° C., reverse-transcribed for 30 min at 48° C., inactivated for 5 min at 95° C., and placed at 4° C. All RT reagents may be purchased from Applied Biosystems, CA.
Real-Time QPCR reaction may be performed in a 50 μl reaction containing the 5 μl of cDNA, 1× Universal PCR Master Mix, 1× c-myc Pre-Developed Primers and Probe set, and 0.8×GAPDH Pre-Developed Primers and Probe set. Because of the relative abundance of GAPDH gene in Hela, GAPDH primers and probe concentration may be adjusted to get accurate threshold cycles (CT) for both genes in the same tube. The threshold cycle (CT) indicates the fractional cycle number at which the amount of amplified target reaches a fixed threshold. By doing so, the GAPDH amplification is stopped before it can limit the common reactants available for amplification of the c-myc. The ΔRn value represents the normalized reporter signal minus the baseline signal. ΔRn increases during PCR as amplicon copy number increases until the reaction approaches a plateau.
The c-myc probe is labeled with 6FAM™ dye-MGB and the GAPDH probe is labeled with VIC™ dye-MTB. Preincubation is performed for 2 min at 50° C. to activate AmpErase UNG enzyme and then for 10 min at 95° C. to activate AmpliTaq DNA Polymerase. DNA is amplified for 40 cycles of 15 sec at 95° C. and 1 min at 60° C. Human c-myc and GAPDH cDNA are amplified, detected, and quantitated in real time using the ABI Prism 7000 Sequence Detection system (Applied Biosystems, CA), which is set to detect both 6-FAM and VIC reporter dyes simultaneously.
The data may be analyzed using the ABI PRISM Sequence Detection System and Microsoft Excel. Relative quantitation is done using the standard curve and comparative CT method at the same time, and both methods gave equivalent results. The cycle at which the amplification plot crosses the CT is known to accurately reflect relative mRNA values. (See, Heid, et al., Genome Res. (1996) 6:986-994; Gibson, et al., Genome Res. (1996) 6:995-1001). […]

For assay [1], the system named is HCT-116 human colorectal carcinoma cells. Put plainly: Alamar Blue (AB) cell proliferation assay, HCT-116. The format is cell-based. The settings on record: 96 h, Alamar Blue cell proliferation inhibition, HCT-116, four days. How it is done: A representative cell-proliferation assay protocol using Alamar Blue dye (stored at 4° C., use 20 ul per well) is described hereafter.
96-Well Plate Setup and Compound Treatment
a. Split and trypsinize cells.
b. Count cells using hemocytometer.
c. Plate 4,000-5,000 cells per well in 100 μl of medium and seed into a 96-well plate according to the following plate layout. Add cell culture medium only to wells B10 to B12. Wells B1 to B9 have cells but no compound added.
d. Add 100 μl of 2× drug dilution to each well in a concentration shown in the plate layout above. At the same time, add 100 μl of media into the control wells (wells B10 to B12). Total volume is 200 μl/well.
e. Incubate four (4) days at 37° C., 5% CO2 in a humidified incubator.
f. Add 20 μl Alamar Blue reagent to each well.
g. Incubate for four (4) hours at 37° C., 5% CO2 in a humidified incubator.
h. Record fluorescence at an excitation wavelength of 544 nm and emission wavelength of 590 nm using a microplate reader.
In the assays, cells are cultured with a test compound for approximately four days, the dye then is added to the cells and fluorescence of […] dye is detected after approximately four hours. Different types of cells can be utilized in the assays (e.g., HCT-116 human colorectal carcinoma cells, PC-3 human prostatic cancer cells and MiaPaca human pancreatic carcinoma cells). Anti-proliferative effects of representative compounds are provided hereafter.
Representative cassette dosing and bioavailability data are given in Table 8, along with cell proliferation inhibition (from Alamar Blue (AB) assay (e.g., Example 45 herein) and rRNA inhibition (from quantitative PCR (QPCR) assay (e.g., Example 46 herein).
(In general: Alamar Blue is a resazurin reagent that responds to reducing activity.)

Among the data in patent US8853234B2, “Quinolone analogs and methods related thereto” (Senhwa Biosciences, Inc., priority 2007, dated 2014) are Selectivity and IC50 values, retold here.

Consider `Cn1cncc1CNC(=O)c1c(=O)c2ccc(N3CCOCC3)nc2n2c1sc1ccccc12`, for which, in the assay with rDNA, the Selectivity turned out to be 60 and half-maximal inhibition (IC50) required 0.262 µM. Inhibition in assay [1] was half-maximal at 0.174 µM (IC50).
Consider `Cn1c2ccccc2n2c3nc(N4CCOCC4)ccc3c(=O)c(C(=O)NCCN3CCCC3)c12`, for which, in the assay on rDNA, the Selectivity was determined as 3 and 0.261 µM corresponded to half-maximal inhibition (IC50). Also, the midpoint of inhibition in assay [1], the IC50, lay at 0.075 µM.
On to `O=C(NCCNCC1CCCO1)c1c(=O)c2ccc(N3CCOCC3)nc2n2c1sc1ccccc12` (stereo not drawn), for which, in the assay with rDNA, the Selectivity is 119 and the IC50 (in general, the concentration that gives 50% inhibition) is 0.04 µM. In addition, in assay [1], the IC50 worked out at 0.116 µM.
In the assay on rDNA, `CN1CCN(C(=O)c2c(=O)c3cc(F)c(N4CCOCC4)nc3n3c2sc2ccccc23)CC1` had a Selectivity of 7 and a 50% inhibitory concentration (IC50) of 1.15 µM. In assay [1], this molecule displayed an IC50 of 0.386 µM.
`O=C(NCCn1ccnc1)c1c(=O)c2ccc(N3CCOCC3)nc2n2c1sc1ccccc12`: in the assay with rDNA, the Selectivity stood at 24 and it took 0.431 µM to reach half-maximal inhibition (IC50). For the same molecule, the IC50 in assay [1] came to 0.473 µM.
The like results for `CN1CCN(c2ccc3c(=O)c(C(=O)NC4CC4)c4n(C)c5ccccc5n4c3n2)CC1` were, in that order, 4, 0.127 µM and 0.202 µM.
As to `O=C(NCCN1CCCC1)c1c(=O)c2cc(F)c(N3CCOCC3)nc2n2c1sc1ccccc12`, in the assay on rDNA, the Selectivity was 70 and half-maximal inhibition (IC50) required 0.127 µM. The molecule further yielded a 50% inhibitory concentration (IC50) in assay [1] of 0.081 µM.
For `O=C(NCCN1CC=CC1)c1c(=O)c2cc(F)c(N3CCOCC3)nc2n2c1sc1ccccc12`, in that order: 3, 0.042 µM and 0.392 µM.
For `Cn1c2ccccc2n2c3nc(N4CCOCC4)c(F)cc3c(=O)c(C(=O)N3CCN4CCCC4C3)c12` (stereo not drawn), in that order: 10, 0.841 µM and 0.843 µM.
For `O=C(NCCN1CC=CC1)c1cn2c3c(c(N4CCC(c5cnccn5)C4)c(F)cc3c1=O)Oc1cc3ccccc3cc1-2` (stereo not drawn), in that order: 24, 1.04 µM and 0.398 µM.
In the assay with rDNA, `O=C(c1c(=O)c2ccc(N3CCOCC3)nc2n2c1sc1ccccc12)N1CCN(c2ncccn2)CC1` yielded a Selectivity of 13. Besides, the IC50 in the assay with rDNA came to 0.578 µM; in assay [1] it was 0.461 µM.
The like results for `Cn1c2ccccc2n2c3nc(N4CCOCC4)c(F)cc3c(=O)c(C(=O)NCCN3CCCC3)c12` were, in that order, 7, 0.318 µM and 0.307 µM.
